Source: US8883680B2, “Herbicide combinations with particular sulphonyl ureas” (Bayer Cropscience AG, priority 2006, dated 2014)

Tests used:
Assay type in all cases: in vivo
[1] = test system: Mimosa pigra; assay: Herbicidal action against woody shrub weeds (greenhouse trials); details: 672 h
Experimental: (§1) The seeds or rhizome pieces of typical harmful plants were placed into sandy loam soil in round pots, size 13, covered with soil and grown in a greenhouse under good growth conditions. After the harmful plants had emerged, they were treated, as a rule at the 2- to 3-leaf stage, with various dosages of the compositions according to the invention at a water application rate of 100 to 400 I/ha (converted).
(§2) After the treatment (approx. 4 weeks after application), the herbidical activity of the active compounds or active compound mixtures was scored visually by comparing the treated plants with untreated controls. Damage and development of all above-ground parts of the plants was recorded. Scoring was done on a percentage scale (100% action=all plants dead; 50% action=50% of the plants and green plant parts dead; 0% action=no discernible action).
(§3) The results are listed in the tables below, where the activity measured for the independent use of the active compounds (A) and (B) is stated in brackets.
(§4) The plants were cultivated to the 5- to 6-leaf stage. Herbicide application and scoring of the trial were carried out as in Example 1.

[2] = test system: Acacia farnesiana; assay: as above; details: Vachellia farnesiana, 672 h
Experimental: as §1, §2, §3, §4

[3] = test system: Lamium amplexicaule; assay: Herbicidal action against weeds (greenhouse trials), post-emergence; details: 672 h, 2- to 3-leaf stage, scored visually approx. 4 weeks after application
Experimental: as §1, §2, §3

[4] = test system: Veronica persica; assay: as above; details: 672 h, 2- to 3-leaf stage, scored visually approx. 4 weeks after application
Experimental: as §1, §2, §3

[5] = application rate 40 g of ai/ha, 5- to 6-leaf stage, scored visually approx. 4 weeks after application

COc1cc(OC)nc(NC(=O)NS(=O)(=O)N(C)S(C)(=O)=O)n1 [Amidosulfuron, 1-(4,6-dimethoxypyrimidin-2-yl)-3-mesyl(methyl)sulfamoylurea]
inhibition at 40 g/ha [1, 5]: 20% | inhibition at 40 g/ha [2, 5]: 43% | inhibition at 20 g/ha ([3]; application rate 20 g of ai/ha): 18% | inhibition at 20 g/ha ([4]; application rate 20 g of ai/ha): 20%

Nc1cc(Cl)nc(C(=O)O)c1Cl [Aminopyralid, 4-amino-3,6-dichloropyridine-2-carboxylic acid]
inhibition at 60 g/ha ([1]; read-out: Mimosa pigra % activity): 73% | inhibition at 60 g/ha ([2]; read-out: Acacia farnesiana % activity): 55%

Nc1c(Cl)c(Cl)nc(C(=O)O)c1Cl [Picloram, 4-amino-3,5,6-trichloropyridine-2-carboxylic acid]
inhibition at 60 g/ha ([3]; application rate 60 g of ai/ha): 75% | inhibition at 60 g/ha ([4]; application rate 60 g of ai/ha): 62%
